# Test results reported in ChEMBL document CHEMBL4680215, “Substituted 1-methyl-4-phenylpyrrolidin-2-ones - Fragment-based design of N-methylpyrrolidone-derived bromodomain inhibitors” (Eur J Med Chem, 2020).
# Molecular target: Bromodomain-containing protein 4 (Homo sapiens, UniProt O60885)
# Assay: Inhibition of GST-tagged BRD4-BD1 (49 to 170 residues) (unknown origin) using Histone H4 peptide as substrate incubated for 1.5 hrs by FRET assay
row,Structure (SMILES),IC50
1,CCN(CC)S(=O)(=O)c1ccc([C@H]2CC(=O)N(C)C2)c(-c2ccc(OC)c(OC)c2)c1,14.1 µM
2,CCN(CC)S(=O)(=O)c1ccc(C2CC(=O)N(C)C2)c(-c2csc3ccccc23)c1 (stereo not given),2670 µM
3,CN1CC(c2ccc(S(=O)(=O)NCCCn3ccnc3)cc2)CC1=O (stereo not given),1390 µM
4,CN1CC(c2ccc(S(=O)(=O)N3CCCCC3)cc2)CC1=O (stereo not given),144 µM
5,CCCNS(=O)(=O)c1ccc(C2CC(=O)N(C)C2)cc1 (stereo not given),147 µM
6,CCN(CC)S(=O)(=O)c1ccc(C2CC(=O)N(C)C2)c(-c2ccc(OC)c(OC)c2)c1 (stereo not given),51.6 µM
7,CC(C)NS(=O)(=O)c1ccc(C2CC(=O)N(C)C2)cc1 (stereo not given),134 µM
8,CN1CC(c2ccccc2Br)CC1=O (stereo not given),321 µM
9,CN1CC(c2ccc(S(=O)(=O)NC34CC5CC(CC(C5)C3)C4)cc2)CC1=O (stereo not given),151 µM
10,CCNS(=O)(=O)c1ccc(C2CC(=O)N(C)C2)cc1 (stereo not given),250 µM
11,CCN(CC)S(=O)(=O)c1ccc(C2CC(=O)N(C)C2)c(CCc2ccccc2)c1 (stereo not given),4500 µM
12,CN1CC(c2ccc(S(=O)(=O)N3CCOCC3)cc2)CC1=O (stereo not given),276 µM
13,CCN(CC)S(=O)(=O)c1ccc(C2CC(=O)N(C)C2)c(-c2ccccc2)c1 (stereo not given),3200 µM
14,CN1CC(c2ccc(S(=O)(=O)N3CCC(c4ccccc4)CC3)cc2)CC1=O (stereo not given),473 µM
15,CN1CC(c2ccc(S(=O)(=O)N3CCC[C@H](C(=O)O)C3)cc2)CC1=O (stereo not given in full),1960 µM
16,CN1CC(c2ccc(S(=O)(=O)N3CCC[C@@H](C(=O)O)C3)cc2)CC1=O (stereo not given in full),1680 µM
17,CN1CC(c2ccccc2-c2ccccc2)CC1=O (stereo not given),575 µM
18,CN1CC(c2ccc(S(=O)(=O)NCc3ccccc3)cc2)CC1=O (stereo not given),443 µM
19,CN1C[C@H](c2ccccc2)CC1=O,1430 µM
20,CCN(CC)S(=O)(=O)c1ccc([C@@H]2CC(=O)N(C)C2)c(-c2ccc(OC)c(OC)c2)c1,35.2 µM
21,CN1C[C@@H](c2ccccc2)CC1=O,629 µM
22,CCN(CC)S(=O)(=O)c1ccc(C2CC(=O)N(C)C2)c(-c2ccc(N(C)C)cc2)c1 (stereo not given),217 µM
23,CN1CC(c2ccccc2)CC1=O (stereo not given),1140 µM
24,CN1CC(c2ccc(Br)cc2)CC1=O (stereo not given),417 µM
25,CCN(CC)S(=O)(=O)c1ccc(C2CC(=O)N(C)C2)cc1 (stereo not given),123 µM
26,CCN(CC)S(=O)(=O)c1ccc(C2CC(=O)N(C)C2)c(Br)c1 (stereo not given),652 µM
27,CN1CC(c2ccc(S(=O)(=O)N3C4CCC3CC(=O)C4)cc2)CC1=O (stereo not given),223 µM
28,CN1CC(c2ccc(-c3ccccc3)cc2)CC1=O (stereo not given),434 µM
29,CN1CC(c2ccc(S(=O)(=O)N3CCCc4ccccc43)cc2)CC1=O (stereo not given),450 µM
30,CCN(CC)S(=O)(=O)c1ccc(C2CC(=O)N(C)C2)c(CCCc2ccccc2)c1 (stereo not given),> 5000 µM
